Experimental data from patent US20060062758A1, “Tight junction modulator peptide PN159 for enhanced mucosal delivery of therapeutic compounds” (Nastech Pharmaceutical Comapny Inc., priority 2004, published 2006).

Tests used:
[1] = system: EpiAirway™ Cell Membrane (mucosal epithelial cell layer); assay: LDH assay (cytotoxicity), in vitro epithelial tissue model; format: cell-based
Method: Repeated freeze-thaw cycles are to be avoided.
The amount of cell death was assayed by measuring the loss of lactate dehydrogenase (LDH) from the cells using a CytoTox 96 Cytoxicity Assay Kit (Promega Corp., Madison, Wis.). Fifty microliters of sample was loaded into a 96-well assay plates. Fresh, cell-free culture medium was used as a blank. 50 μl of substrate solution was added to each well and the plates incubated for 30 minutes at room temperature in the dark. Following incubation, 50 μl of stop solution was added to each well and the plates read on an optical density plate reader at 490 nm.
The formulation pH was fixed at 4.5.

[2] = system: EpiAirway™ Cell Membrane (mucosal epithelial cell layer); assay: Transepithelial electrical resistance (TER), EpiAirway in vitro epithelial tissue model; format: cell-based
[3] = Intranasal PYY plasma pharmacokinetics in rabbits; format: in vivo, New Zealand White rabbits; conditions: for plasma concentration of PYY: average of 4 animals; for Relative AUC last / Relative Cmax / AUCINF, Mean / AUClast, Mean: plasma PYY; for Relative AUC last / Relative Cmax: compared with Group 2 (no enhancer) formulation
Method: 20 male New Zealand White rabbits age 3-6 months and weighing 2.1-3.0 kg were randomly assigned into one of 5 treatment groups with four animals per group. Test animals were dosed at 15 μl/kg and intranasally via pipette. Table 4 below indicates the composition of five different dose groups.
For dosing group 1 (see Table 1) a clinical formulation of PYY including small molecule permeation enhancers was used. The small molecule enhancers in these studies included methyl-βcyclodextrin, phosphatidylcholine didecanoyl (DDPC), and/or EDTA. Dosing group 2 received PYY dissolved in phosphate buffered saline (PBS).
Serial blood samples (about 2 ml each) were collected by direct venipuncture from a marginal ear vein into blood collection tubes containing EDTA as an anticoagulant. Blood samples were collected at 0, 2.5, 5, 10, 15, 30, 45, 60, and 120 minutes post-dosing. After collection of the blood, the tubes were gently rocked several times for anti-coagulation, and then 50 μl aprotinin solution was added. The blood was centrifuged at approximately 1,600×g for 15 minutes at approximately 4° C., and plasma samples were dispensed into duplicate aliquots and stored frozen at approximately −70° C.

[4] = Chemical stability of PN159 in solution (stability indicating HPLC); format: physicochemical; conditions: pH 9 and/or elevated temperature, e.g., 40 to 50° C.
Method: The chemical stability of the PN159 was determined under therapeutically relevant storage conditions. A stability indicating HPLC method was employed. Solutions (50 mM) were stored at various pH (4.0, 7.3, and 9.0) and temperature (5° C., 25° C., 35° C., 40° C., and 50° C.) conditions. Samples at pH 4 contained 10 mM citrate buffer. Samples at pH 7.3 and 9.0 contained 10 mM phosphate buffer. Representative storage stability data (including the Arrhenius plot) are depicted in FIG. 6. […] For example, at 5° C. and pH 4.0 or pH7.3, there was essentially 100% recovery of PN159 for six month storage. […] The pH range of 4.0 to 7.3 and the temperature range of refrigerated to ambient are most relevant for intranasal formulations.

[5] = MTT assay (cell viability), in vitro epithelial tissue model; format: cell-based; conditions: human, pH 5; galantamine lactate 40 mg/ml and PN159 at all concentrations tested (25, 50, 100 μM)
[6] = intranasal PYY 205 μg/kg in PBS with 25 μM PN159 (Group 3)
[7] = intranasal PYY 205 μg/kg in PBS with 50 μM PN159 (Group 4)
[8] = intranasal PYY 205 μg/kg in PBS with 100 μM PN159 (Group 5)

CC(C)C[C@H](NC(=O)[C@H](C)NC(=O)[C@H](CCCCN)NC(=O)[C@H](CC(C)C)NC(=O)[C@H](C)NC(=O)[C@H](CC(C)C)NC(=O)[C@H](CCCCN)NC(=O)[C@H](CC(C)C)NC(=O)[C@H](C)NC(=O)[C@H](CC(C)C)NC(=O)[C@@H](N)CCCCN)C(=O)N[C@@H](CCCCN)C(=O)N[C@@H](C)C(=O)N[C@@H](C)C(=O)N[C@@H](CC(C)C)C(=O)N[C@@H](CCCCN)C(=O)N[C@@H](CC(C)C)C(=O)N[C@@H](C)C(N)=O [PN159]
cytotoxicity (LDH) ([1]; Example 2, PTH study, PN159 25-100 μM): no significant cytotoxicity
cytotoxicity as measured by LDH ([1]; in the presence of PN159 and galantamine lactate): low
TER (in words) ([2]; PN159 25, 50, 100 μM in the presence of 40 mg/ml galantamine lactate, pH 5.0): reduced TER
TER reduction ([2]; PN159 25, 50, 100 μM with 2 mg/ml PTH, pH 4.5): more than 80%
plasma concentration of PYY ([3]; 0 min post-dosing, intranasal PYY 205 μg/kg in PBS with 25 μM PN159): 228.675
plasma concentration of PYY ([3]; 0 min post-dosing, intranasal PYY 205 μg/kg in PBS with 50 μM PN159): 424.4
plasma concentration of PYY ([3]; 0 min post-dosing, intranasal PYY 205 μg/kg in PBS with 100 μM PN159): 294.225
plasma concentration of PYY ([3]; 2.5 min post-dosing, intranasal PYY 205 μg/kg in PBS with 25 μM PN159): 526.375
plasma concentration of PYY ([3]; 2.5 min post-dosing, intranasal PYY 205 μg/kg in PBS with 50 μM PN159): 749.975
plasma concentration of PYY ([3]; 2.5 min post-dosing, intranasal PYY 205 μg/kg in PBS with 100 μM PN159): 1748.225
plasma concentration of PYY ([3]; 5 min post-dosing, intranasal PYY 205 μg/kg in PBS with 25 μM PN159): 1430.15
plasma concentration of PYY ([3]; 5 min post-dosing, intranasal PYY 205 μg/kg in PBS with 50 μM PN159): 1293.4
plasma concentration of PYY ([3]; 5 min post-dosing, intranasal PYY 205 μg/kg in PBS with 100 μM PN159): 3088.2
plasma concentration of PYY ([3]; 10 min post-dosing, intranasal PYY 205 μg/kg in PBS with 25 μM PN159): 6521.7
plasma concentration of PYY ([3]; 10 min post-dosing, intranasal PYY 205 μg/kg in PBS with 50 μM PN159): 12517.2
plasma concentration of PYY ([3]; 10 min post-dosing, intranasal PYY 205 μg/kg in PBS with 100 μM PN159): 14486.6
plasma concentration of PYY ([3]; 15 min post-dosing, intranasal PYY 205 μg/kg in PBS with 25 μM PN159): 12563.075
plasma concentration of PYY ([3]; 15 min post-dosing, intranasal PYY 205 μg/kg in PBS with 50 μM PN159): 34455.3
plasma concentration of PYY ([3]; 15 min post-dosing, intranasal PYY 205 μg/kg in PBS with 100 μM PN159): 20882.725
plasma concentration of PYY ([3]; 30 min post-dosing, intranasal PYY 205 μg/kg in PBS with 25 μM PN159): 15222.6
plasma concentration of PYY ([3]; 30 min post-dosing, intranasal PYY 205 μg/kg in PBS with 50 μM PN159): 35294.375
plasma concentration of PYY ([3]; 30 min post-dosing, intranasal PYY 205 μg/kg in PBS with 100 μM PN159): 25470.475
plasma concentration of PYY ([3]; 45 min post-dosing, intranasal PYY 205 μg/kg in PBS with 25 μM PN159): 9081.125
plasma concentration of PYY ([3]; 45 min post-dosing, intranasal PYY 205 μg/kg in PBS with 50 μM PN159): 21582.225
plasma concentration of PYY ([3]; 45 min post-dosing, intranasal PYY 205 μg/kg in PBS with 100 μM PN159): 16499.55
plasma concentration of PYY ([3]; 60 min post-dosing, intranasal PYY 205 μg/kg in PBS with 25 μM PN159): 4843.15
plasma concentration of PYY ([3]; 60 min post-dosing, intranasal PYY 205 μg/kg in PBS with 50 μM PN159): 9461.925
plasma concentration of PYY ([3]; 60 min post-dosing, intranasal PYY 205 μg/kg in PBS with 100 μM PN159): 10676.625
plasma concentration of PYY ([3]; 120 min post-dosing, intranasal PYY 205 μg/kg in PBS with 25 μM PN159): 1224.2
plasma concentration of PYY ([3]; 120 min post-dosing, intranasal PYY 205 μg/kg in PBS with 50 μM PN159): 2337.775
plasma concentration of PYY ([3]; 120 min post-dosing, intranasal PYY 205 μg/kg in PBS with 100 μM PN159): 1891.275
Relative AUC last ([3]; PN159, 25 μm (Group 3)): 21x
Relative Cmax ([3]; PN159, 25 μm (Group 3)): 30x
Relative AUC last ([3]; PN159, 50 μm (Group 4)): 46x
Relative Cmax ([3]; PN159, 50 μm (Group 4)): 79x
Relative AUC last ([3]; PN159, 100 μm (Group 5)): 38x
Relative Cmax ([3]; PN159, 100 μm (Group 5)): 54x
AUCINF, Mean [3, 6]: 796354.7 pg·min/mL
AUClast, Mean [3, 6]: 748104.1 pg·min/mL
AUCINF, Mean [3, 7]: 1787348 pg·min/mL
AUClast, Mean [3, 7]: 1692499 pg·min/mL
AUCINF, Mean [3, 8]: 1518949 pg·min/mL
AUClast, Mean [3, 8]: 1384241 pg·min/mL
chemical stability (in words) [4]: rapid deterioration
viability [5]: > 80%
